≈ marks a conversion by molar mass, not a printed value.
Assays:
[1] = biological target: T1, PBP3 from Pseudomonas aeruginosa (PAO1) (Pseudomonas aeruginosa, UniProt G3XD46); experiment: Bocillin-FL fluorescence polarization competition binding, P. aeruginosa PBP3; conditions: Binding affinity to P. aeruginosa PBP3; fluorescence polarization competition binding assay using Bocillin-FL; read-out: P. aeruginosa PBP3 Potency
T1 construct: made in house
Procedure, shortened: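 Purified PBPs pre-incubated with inhibitor (E. coli PBP3 1.5 μM, 30 min; P. aeruginosa PBP3 0.75 μM, A. baumannii PBP1a 1 μM and PBP3 0.2 μM, 15 min), then Bocillin-FL 0.1 μM (0.05 μM for PBP1a) added; FP read up to 60 min. EC50 = concentration halving bound Bocillin-FL.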

[2] = tested on: E. coli AG100; experiment: microbe, parasite or virus in culture; format: cell-based; conditions: Escherichia coli, AG100, read-out: MIC E. coli AG100
[3] = tested on: E. coli 901C; experiment: microbe, parasite or virus in culture; format: cell-based; conditions: Escherichia coli, read-out: MIC E. coli 901C
[4] = tested on: E. coli AG100A; experiment: Broth microdilution MIC in CAMHB; format: cell-based; conditions: Escherichia coli, read-out: MIC E. coli AG100A
[5] = tested on: K. pneumoniae 848844; experiment: microbe, parasite or virus in culture; format: cell-based; conditions: Klebsiella pneumoniae, 848844, read-out: MIC K. pneumoniae 848844
[6] = tested on: K. pneumoniae SI-117; experiment: microbe, parasite or virus in culture; format: cell-based; conditions: Klebsiella pneumoniae, SI117, read-out: MIC K. pneumoniae SI-117
[7] = tested on: A. baumannii ATCC 19606; experiment: microbe, parasite or virus in culture; format: cell-based; conditions: Acinetobacter baumannii, ATCC19606, read-out: MIC, A. baumannii ATCC 19606
[8] = tested on: P. aeruginosa ATCC 35151; experiment: microbe, parasite or virus in culture; format: cell-based; conditions: Pseudomonas aeruginosa, ATCC35151, read-out: MIC P. aeruginosa ATCC 35151
[9] = tested on: P. aeruginosa (ΔmexAB-oprM); experiment: Broth microdilution MIC in CAMHB; format: cell-based; conditions: Pseudomonas aeruginosa; read-out: MIC P. aeruginosa ΔmexAB-oprM
[10] = tested on: N. gonorrhoeae ATCC 49226; experiment: Liquid broth MIC in Fastidious broth; conditions: Neisseria gonorrhoeae, ATCC49226, read-out: Minimum Inhibitory Concentration (MIC), N. gonorrhoeae ATCC 49226
[11] = tested on: N. gonorrhoeae FA1090; experiment: Liquid broth MIC in Fastidious broth; conditions: Neisseria gonorrhoeae, FA1090, read-out: Minimum Inhibitory Concentration (MIC), N. gonorrhoeae FA 1090
[12] = tested on: N. gonorrhoeae WHO L; experiment: Liquid broth MIC in Fastidious broth; conditions: Neisseria gonorrhoeae, read-out: Minimum Inhibitory Concentration (MIC), N. gonorrhoeae WHO L
[13] = tested on: N. gonorrhoeae WHO M; experiment: Liquid broth MIC in Fastidious broth; conditions: Neisseria gonorrhoeae, read-out: Minimum Inhibitory Concentration (MIC), N. gonorrhoeae WHO M
Protocol: Liquid broth-based assays were used for antibacterial testing of PBP inhibitors in Neisseria gonorrhoeae. Briefly, cryo-preserved bacterial cultures of clinical strains were streaked for isolation on Chocolate Agar (72 g/L (2×) GC Agar Base (BD #228950) and 2% (2×) Hemoglobin was autoclaved at 121° C. for 20 minutes to sterilize. Once cooled to ˜50° C. the 2×GC Agar Base and 2× Hemoglobin solutions are combined and 1% IsoVitaleX Enrichment (BD #211876) was added to the solution). Strains were incubated at 36° C. and 5% CO2 to allow growth of colonies, 24 hours before inoculum preparation. 2-fold serial dilutions of test compounds were conducted in a 96 well plate with a final volume of 75 μL per well at 2-fold the final desired concentration in Fastidious broth (Remel #R07664). For preparation of assay inoculum, a direct suspension was prepared by aseptically swabbing 10-15 colonies from agar plates into culture tubes containing 2 mL of fresh sterile saline. After the dilution plates were set up, direct suspensions were then diluted in a cuvette containing sterile saline and the optical density was measured at 600 nm. Inocula were diluted such that 75 μL of this culture in Fastidious broth results in a starting bacterial concentration of 5×10^5 CFU/mL when added to the dilution plates. The plates were incubated for ˜24 hours at 36° C. and 5% CO2.

[14] = tested on: N. gonorrhoeae WHO X; experiment: Liquid broth MIC in Fastidious broth; conditions: Neisseria gonorrhoeae, read-out: Minimum Inhibitory Concentration (MIC), N. gonorrhoeae WHO X
[15] = tested on: N. gonorrhoeae WHO Z; experiment: Liquid broth MIC in Fastidious broth; conditions: Neisseria gonorrhoeae, read-out: Minimum Inhibitory Concentration (MIC), N. gonorrhoeae WHO Z
[16] = tested on: N. gonorrhoeae WHO Q; experiment: Liquid broth MIC in Fastidious broth; conditions: Neisseria gonorrhoeae, read-out: Minimum Inhibitory Concentration (MIC), N. gonorrhoeae WHO Q

T1 sequence (G3XD46 whole entry): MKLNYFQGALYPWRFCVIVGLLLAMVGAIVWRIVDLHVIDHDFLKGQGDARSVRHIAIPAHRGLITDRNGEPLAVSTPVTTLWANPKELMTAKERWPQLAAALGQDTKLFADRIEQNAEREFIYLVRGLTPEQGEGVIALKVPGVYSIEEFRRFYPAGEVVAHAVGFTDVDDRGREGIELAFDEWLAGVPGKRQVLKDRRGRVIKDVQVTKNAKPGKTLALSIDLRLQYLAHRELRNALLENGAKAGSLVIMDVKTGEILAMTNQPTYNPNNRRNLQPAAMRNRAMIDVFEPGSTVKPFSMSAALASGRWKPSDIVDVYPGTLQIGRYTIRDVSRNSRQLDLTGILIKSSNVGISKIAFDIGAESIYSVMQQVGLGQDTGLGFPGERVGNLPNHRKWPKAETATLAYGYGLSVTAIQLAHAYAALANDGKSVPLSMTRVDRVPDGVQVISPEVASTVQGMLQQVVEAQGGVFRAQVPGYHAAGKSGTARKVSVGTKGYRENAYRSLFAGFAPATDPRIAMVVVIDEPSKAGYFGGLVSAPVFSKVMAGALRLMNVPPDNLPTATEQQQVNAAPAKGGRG

SMILES: CS(=O)(=O)N1CCN(C(=O)NC(C(=O)N[C@H]2Cc3cccc(C(=O)O)c3OB2O)c2ccc(P(=O)(O)O)c(F)c2O)C1=O (stereo partly drawn) [Example 48, (3R)-3-(2-(3-fluoro-2-hydroxy-4-phosphonophenyl)-2-(3-(methylsulfonyl)-2-oxoimidazolidine-1-carboxamido)acetamido)-2-hydroxy-3,4-dihydro-2H-benzo[e][1,2]oxaborinine-8-carboxylic acid]
- IC50 [1]: 10 to 50 µM
- MIC [2]: > 128 µg/mL
- MIC [3]: < 1 µg/mL
- MIC [4]: > 128 µg/mL
- MIC [5]: > 128 µg/mL
- MIC [6]: > 128 µg/mL
- MIC [7]: > 128 µg/mL
- MIC [8]: 8 to 16 µg/mL (≈ 12.4 to 24.8 µM)
- MIC [9]: > 128 µg/mL
- MIC [10]: < 1 µg/mL
- MIC [11]: < 1 µg/mL
- MIC [12]: 4 to 8 µg/mL (≈ 6.21 to 12.4 µM)
- MIC [13]: < 1 µg/mL
- MIC [14]: 16 to 32 µg/mL (≈ 24.8 to 49.7 µM)
- MIC [15]: 1 to 2 µg/mL (≈ 1.55 to 3.1 µM)
- MIC [16]: 1 to 2 µg/mL (≈ 1.55 to 3.1 µM)

SMILES: O=C(O)c1cccc2c1OB(O)[C@@H](NC(=O)C(NC(=O)[C@H]1CCCN1)c1ccc(P(=O)(O)O)cc1)C2 (stereo partly drawn) [Example 52, (3R)-2-hydroxy-3-(2-(4-phosphonophenyl)-2-((R)-pyrrolidine-2-carboxamido)acetamido)-3,4-dihydro-2H-benzo[e][1,2]oxaborinine-8-carboxylic acid]
- IC50 [1]: 50 to 250 µM
- MIC [2]: > 128 µg/mL
- MIC [3]: 32 to 64 µg/mL (≈ 61.9 to 124 µM)
- MIC [4]: 32 to 64 µg/mL (≈ 61.9 to 124 µM)
- MIC [5]: > 128 µg/mL
- MIC [6]: 32 to 64 µg/mL (≈ 61.9 to 124 µM)
- MIC [7]: > 128 µg/mL
- MIC [8]: 8 to 16 µg/mL (≈ 15.5 to 30.9 µM)
- MIC [9]: > 128 µg/mL
- MIC [10]: 16 to 32 µg/mL (≈ 30.9 to 61.9 µM)
- MIC [11]: 16 to 32 µg/mL (≈ 30.9 to 61.9 µM)
- MIC [12]: 4 to 8 µg/mL (≈ 7.73 to 15.5 µM)
- MIC [13]: 16 to 32 µg/mL (≈ 30.9 to 61.9 µM)
- MIC [14]: 16 to 32 µg/mL (≈ 30.9 to 61.9 µM)
- MIC [15]: 16 to 32 µg/mL (≈ 30.9 to 61.9 µM)
- MIC [16]: 16 to 32 µg/mL (≈ 30.9 to 61.9 µM)

SMILES: O=C1CC[C@H](C(=O)NC(C(=O)N[C@H]2Cc3cccc(C(=O)O)c3OB2O)c2ccc(P(=O)(O)O)cc2)N1 (stereo partly drawn) [Example 53, (3R)-2-hydroxy-3-(2-((R)-5-oxopyrrolidine-2-carboxamido)-2-(4-phosphonophenyl)acetamido)-3,4-dihydro-2H-benzo[e][1,2]oxaborinine-8-carboxylic acid]
- IC50 [1]: 10 to 50 µM
- MIC [2]: > 128 µg/mL
- MIC [3]: 8 to 16 µg/mL (≈ 15.1 to 30.1 µM)
- MIC [4]: > 128 µg/mL
- MIC [5]: > 128 µg/mL
- MIC [6]: > 128 µg/mL
- MIC [7]: > 128 µg/mL
- MIC [8]: 8 to 16 µg/mL (≈ 15.1 to 30.1 µM)
- MIC [9]: > 128 µg/mL
- MIC [10]: 1 to 2 µg/mL (≈ 1.88 to 3.76 µM)
- MIC [11]: 1 to 2 µg/mL (≈ 1.88 to 3.76 µM)
- MIC [12]: 16 to 32 µg/mL (≈ 30.1 to 60.2 µM)
- MIC [13]: 1 to 2 µg/mL (≈ 1.88 to 3.76 µM)
- MIC [14]: 16 to 32 µg/mL (≈ 30.1 to 60.2 µM)
- MIC [15]: 16 to 32 µg/mL (≈ 30.1 to 60.2 µM)
- MIC [16]: 16 to 32 µg/mL (≈ 30.1 to 60.2 µM)

SMILES: O=C(O)c1cccc2c1OB(O)[C@@H](NC(=O)C(NC(=O)N1CCCNC1=O)c1ccc(P(=O)(O)O)cc1)C2 (stereo partly drawn) [Example 56, (3R)-2-hydroxy-3-(2-(2-oxohexahydropyrimidine-1-carboxamido)-2-(4-phosphonophenyl)acetamido)-3,4-dihydro-2H-benzo[e][1,2]oxaborinine-8-carboxylic acid]
- IC50 [1]: < 10 µM
- MIC [2]: > 128 µg/mL
- MIC [3]: 2 to 4 µg/mL (≈ 3.66 to 7.32 µM)
- MIC [4]: 32 to 64 µg/mL (≈ 58.6 to 117 µM)
- MIC [5]: > 128 µg/mL
- MIC [6]: > 128 µg/mL
- MIC [7]: > 128 µg/mL
- MIC [8]: < 1 µg/mL
- MIC [9]: > 128 µg/mL
- MIC [10]: 1 to 2 µg/mL (≈ 1.83 to 3.66 µM)
- MIC [11]: < 1 µg/mL
- MIC [12]: 16 to 32 µg/mL (≈ 29.3 to 58.6 µM)
- MIC [13]: < 1 µg/mL
- MIC [14]: 16 to 32 µg/mL (≈ 29.3 to 58.6 µM)
- MIC [15]: 4 to 8 µg/mL (≈ 7.32 to 14.6 µM)
- MIC [16]: 4 to 8 µg/mL (≈ 7.32 to 14.6 µM)

SMILES: O=C(O)c1cccc2c1OB(O)[C@@H](NC(=O)C(NC(=O)N1CCCC1=O)c1ccc(P(=O)(O)O)cc1)C2 (stereo partly drawn) [Example 57, (3R)-2-hydroxy-3-(2-(2-oxopyrrolidine-1-carboxamido)-2-(4-phosphonophenyl)acetamido)-3,4-dihydro-2H-benzo[e][1,2]oxaborinine-8-carboxylic acid]
- IC50 [1]: < 10 µM
- MIC [2]: > 128 µg/mL
- MIC [3]: < 1 µg/mL
- MIC [4]: 32 to 64 µg/mL (≈ 60.2 to 120 µM)
- MIC [5]: > 128 µg/mL
- MIC [6]: > 128 µg/mL
- MIC [7]: > 128 µg/mL
- MIC [8]: 2 to 4 µg/mL (≈ 3.76 to 7.53 µM)
- MIC [9]: > 128 µg/mL
- MIC [10]: < 1 µg/mL
- MIC [11]: < 1 µg/mL
- MIC [12]: 16 to 32 µg/mL (≈ 30.1 to 60.2 µM)
- MIC [13]: < 1 µg/mL
- MIC [14]: 4 to 8 µg/mL (≈ 7.53 to 15.1 µM)
- MIC [15]: 1 to 2 µg/mL (≈ 1.88 to 3.76 µM)
- MIC [16]: 1 to 2 µg/mL (≈ 1.88 to 3.76 µM)
